Drawing on PubChem BioAssay AID1902 (Broad Institute, 2009), this text covers EC50 for 42 compounds.

Calls of active or inactive are those of the source.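 Rule for the calls: active = EC50 no more than a set limit of log units above the highest dose; inactive = the rest.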

This test deals with S. pyogenes SKKanGAS, kanamycin survival, BacTiterGlo, 6 h. The experiment in a line: S. pyogenes SKKanGAS kanamycin growth inhibitors – SKKanGAS strain, luminescence, dose confirmation, streptokinase promoter inhibitor project, dose response (AID 1902).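 Note: lower survival reflects blocked streptokinase promoter driving kanamycin resistance gene.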
On to `CCc1nnc(NS(=O)(=O)c2ccc(NC(=S)NC(=O)/C=C/c3ccc(C(C)C)cc3)cc2)s1`, for which the EC50 – broadly, the midpoint of the concentration-response curve – is 3.11 µM. The same measure for `Nc1cc(-c2ccc(OC(F)(F)F)cc2)nn1-c1ccc(Cl)c(Cl)c1`: 6.17 µM; for `O=C(c1nc2ccc(Cl)cn2c1CN1CCC(CO)CC1)N1CCc2ccccc2C1`: > 15 µM (inactive).

As to `COc1ccc(Cn2c(SCc3cc(C)ccc3C)nc3cc(OC)c(OC)cc3c2=N)cc1`, the EC50 was 2.73 µM. The same measure for `CCCCc1c(C)nn(-c2nnc3c4ccccc4n(CC)c3n2)c1C`: 1.84 µM; for `CCC(=O)Nc1nc2ccccc2n1Cc1ccccc1Cl`: 8.22 µM; for `CCCCSc1nc(C)cc(SCC(=O)N/N=C/c2cccc(OC)c2O)n1`: 2.14 µM. In the case of `CCOc1cccc(N(C(=O)c2ccco2)C(C(=O)NC2CCCC2)c2cccnc2)c1` (configuration not stated) it was > 15 µM (inactive); in that of `Cc1c(Cl)cccc1NC(=S)NCCC(c1ccccc1)c1ccccc1`, 9.25 µM. In the case of `Cc1cccc(Cn2nc(C(C)(C)C)cc2C(=O)Nc2ccc(F)cc2)c1`, the EC50 was 3.95 µM.

For `Cc1noc(C)c1CSc1nc2sc(C)c(C)c2c(=O)n1C1CCCC1`, the EC50 was 2.94 µM. The same measure for `O=C(CSc1ccc2ccccc2n1)N/N=C/c1ccccc1O`: 2.12 µM. In the case of `CCCCC[n+]1ccn(C2=C([O-])c3ccccc3C(=O)/C2=N\S(=O)(=O)c2ccc(Br)cc2)c1` it was 2.87 µM. In the case of `CN1CCN(c2cc3c(cc2F)c(=O)c(C(=O)O)cn3CCF)CC1` it was 4.37 µM; in that of `Cc1ccc(Oc2nc(-c3ccccn3)nc3ccccc23)cc1`, under 0.06 µM; in that of `COc1cc(OC)cc(C(=O)Nc2nnc(NC(=S)Nc3ccccc3)s2)c1`, 5.13 µM. As for `Cc1cccc(/C=N/NC(=O)c2ccccc2OCc2cccc(Br)c2)n1`, the EC50 was 6.56 µM. In the case of `O=C1C(NS(=O)(=O)c2cccs2)=C(N2CCN(c3cccc(C(F)(F)F)c3)CC2)C(=O)c2ccccc21` it was 8.85 µM; in that of `Cc1ccc(C(=O)NC2CCCC2)s1`, > 15 µM (inactive); in that of `CC(C)C(=O)Nc1ccc(C(=O)NNC(=S)NC(=O)c2cccs2)cc1`, 6.57 µM.

In the case of `O=C1c2cccc3cccc(c23)C(=O)N1CC1CCN(CC(O)COc2ccc3ccccc3c2)CC1` (configuration not stated), the EC50 is 6.84 µM. In the case of `CCOC(=O)c1sc2nccc(N(C)C)c2c1N=CNOCc1c(F)cccc1Cl` it was 5.16 µM. Take `Cn1cccc1CC(=O)NNC(=S)NC(=O)c1ccccc1Br`: the EC50 is 1.64 µM. Turning to `Cc1onc(-c2ccccc2)c1C(=O)NC(=S)NNC(=O)c1ccc(O)cc1O`, the EC50 was 2.67 µM. The same measure for `CCn1c(NC(=O)c2cccc(Cn3cc(Cl)cn3)c2)nc2ccccc21`: 1.02 µM; for `CCc1cc(C(=O)N2CCCC(CCC(=O)NCc3cccc(OC)c3)C2)no1` (configuration not stated): > 15 µM (inactive); for `N#Cc1c(NC(=O)CSc2n[nH]c(Cc3ccccc3)n2)oc(-c2ccccc2)c1-c1ccccc1`: 4.93 µM.

On to `O=C(N/N=C/c1sc2ccccc2c1O)c1cccc2ccccc12`, for which the EC50 is 2.52 µM. In the case of `O=C(/C=C/c1ccccc1Cl)c1ccccc(=O)c1O` it was 0.824 µM.

For the compound `Cc1cccc(CS(=O)(=O)c2nnc([C@H](Cc3ccccc3)NC(=O)OC(C)(C)C)o2)c1`, the EC50 is 3.88 µM. With `O=C(Nc1ncc(Cc2ccccc2)s1)c1cccs1`, the EC50 is 1.9 µM. In the case of `Cc1nn(-c2ccccc2)c(Cl)c1/C=N/Nc1ccc(S(=O)(=O)Nc2ccccc2C(=O)O)cc1[N+](=O)[O-]` it was 1.29 µM; in that of `CCOc1ccc(C(=O)NC(=S)Nc2ccc(N3CCOCC3)c(Cl)c2)cc1[N+](=O)[O-]`, 0.714 µM; in that of `O=S(=O)(Nc1ccc(N=Nc2ccc(O)c3ccccc23)cc1)c1ccccc1`, 7.08 µM. The same measure for `c1ccc(-c2noc(-c3ccccc3-c3ccccc3)n2)cc1`: 3.7 µM; for `Cc1c(C(=O)Nc2ccc3c(c2)OCCO3)sc2nc(-c3ccccc3)cn12`: 2.52 µM; for `CC(Oc1ccc2ccccc2c1)C(=O)NNC(=S)NC(=O)c1ccco1` (configuration not stated): 0.149 µM.

On to `O=C(Nc1nnc(-c2ccco2)o1)c1ccc(Cl)s1`, for which the EC50 was 1.71 µM.

As to `C/C(=N\NC(=O)c1cccc(Br)c1)c1ccccn1`, the EC50 was 0.74 µM.

As to `O=C1Nc2cc(C(=O)N3CCN(c4ccccn4)CC3)ccc2S/C1=C\c1ccccc1`, the EC50 was 3.35 µM. In the case of `COc1ccc(NC2=NCC(Cc3ccc(Br)cc3)S2)cc1` (configuration not stated) it was 11.9 µM; in that of `O=S(=O)(NCCSCc1c(Cl)cccc1Cl)c1ccc2c(c1)OCCO2`, 7.45 µM.
